Experimental data published in PMC11801715, “Activating PKC-ε induces HIV expression with improved tolerability” (PLOS Pathogens, 2025).

Columns and labels:
[1] = test system: platelets (CD62P+) and CD4+ T cells (CD69+) in whole blood; test: In vitro whole blood platelet and CD4+ T-cell activation assay; format: cell-based, human; settings: whole blood from healthy donors; platelets to CD4+ T cells
Description: We developed a novel human whole blood assay to determine whether other PKC agonists also activate platelets at the same concentrations that are required to activate CD4^+ T cells. Platelet activation was assessed by CD62P (P-selectin), which traffics to the cell surface upon activation and α-granule release. CD4^+ T-cell activation was assessed by CD69 upregulation (Fig 7A).
Whole blood was drawn into sodium citrate tubes using a 21-gauge needle. To prevent potential interference from tissue thromboplastin released during venipuncture, which could affect the accuracy of coagulation testing, the first 2 mL of blood drawn was discarded. PKC agonist molecules were dispensed in a dilution series into 80 μL of blood per well in a flat-bottom 96-well plate and mixed gently. Care was taken not to introduce any mechanical stress-related activation of platelets. […] The remaining 72 μL of blood in the first plate was incubated for 1 additional hour and stained with anti-human CD3 (UCHT1), CD4 (SK3), and CD69 (FN50) (30 minutes in the dark). Red blood cell lysis and fixing was done using BD lyse/fix solution. Stained cells were acquired on BD LSR Fortessa II after washing. […] EC50 values for platelet and CD4 T-cell activation for each agonist was obtained by nonlinear regression curve fit using GraphPad Prism version 9.3.0.

[2] = cited from earlier work
[3] = test system: latent HIV in total CD4+ T cells; test: microbe, parasite or virus in culture; format: cell-based, HIV-1; settings: Human immunodeficiency virus 1, CD4+ T, read-out: EC50, activation of HIV expression
Description: Peripheral blood mononuclear cells and CD4^+ T cells used for evaluating PKC agonist and inhibitor molecules were isolated from leukopaks of selected participants as described previously. Isolated CD4^+ T cells (5×10^6 cells/well) were added to 24-well tissue culture plates in 2.5 mL of RPMI medium containing 100 nM each of elvitegravir and efavirenz. Cells were stimulated with DMSO (vehicle control) or the indicated concentrations of PKC agonist molecules. Cells were pretreated with PKC isoform inhibitors (Selleck Chemicals) for 1 hour before addition of PKC agonist at indicated concentrations and maintained at 37 °C, 5% CO2 for 3 days. Cell supernatants from each well were analyzed using the Cobas […] system for quantification of HIV-1 RNA using the HIV-1 test v2.0 kit (Roche Diagnostics).

PBMCs = test: Cytokine induction in vitro in PBMC culture supernatants; format: cell-based, human; settings: 24 hours
Description: Culture supernatants were analyzed for induction of several cytokines as shown in S3 Table, using a 10-plex MSD (Meso Scale Discovery) assay following manufacturer’s instructions. MSD Workbench 4.0 software was used for data analysis and 4-parameter logistic curve fit model was utilized to determine values of experimental samples from standard curves. Values for each cytokine (pg/mL) for a given concentration was calculated as the geometric mean of all triplicate values combined from all 5 donors.

CD69 on CD4+ T cells = test: CD4+ T-cell activation flow cytometry (CD69); format: cell-based; settings: Homo sapiens; CD4+ T cells from ART-suppressed people with HIV; read-out: EC50, activation of CD69 expression
Description: Sixteen hours post treatment with PKC agonists, cellular activation of 100,000 CD4^+ T cells, taken from the above ex vivo HIV activation cultures, was assessed using flow cytometry. Cell surface expression of CD69 was measured on CD4^+ T cells using anti-human CD3 (UCHT1), CD4 (SK3) and CD69 (FN50) antibodies and standard flow staining methods. Stained cells were acquired on the Becton Dickinson (BD) LSR Fortessa II flow cytometer and results were analyzed using FlowJo software.

platelet-rich plasma = test: Platelet aggregation assay (light transmittance aggregometry); format: cell-based, human; settings: dilution series, 20 minutes
Description: Given that C-232A induced DIC in rats and monkeys, we tested whether C-232A could directly induce platelet activation and downstream aggregation. […] Adenosine diphosphate, a known platelet agonist, was used as a positive control (S7A Fig).
Aggregation of platelets was assessed using light transmittance aggregometry using standard methods.
(A) Assay principle for platelet aggregation assay.

CCCCCCCCCCCCCC(=O)O[C@@H]1[C@@H](C)[C@@]2(O)[C@@H](C=C(CO)C[C@]3(O)C(=O)C(C)=C[C@@H]23)[C@@H]2C(C)(C)[C@]12OC(C)=O [PMA, phorbol 12-myristate 13-acetate, reference compound]
CD62P EC50/CD69 EC50 ratio Geomean [1]: 1.5

CCC/C=C/C=C/C(=O)O[C@H]1/C(=C/C(=O)OC)C[C@H]2C[C@H]([C@@H](C)O)OC(=O)C[C@H](O)C[C@@H]3C[C@H](OC(C)=O)C(C)(C)[C@](O)(C[C@@H]4C/C(=C/C(=O)OC)C[C@H](/C=C/C(C)(C)[C@]1(O)O2)O4)O3 [Bryostatin, reference compound]
CD62P EC50/CD69 EC50 ratio Geomean [1]: 0.9 | dose-limiting toxicity [2]: myalgia

CC(C)[C@H]1C(=O)N[C@H](CO)Cc2c[nH]c3cccc(c23)N1C [Indolactam, reference compound]
CD62P EC50/CD69 EC50 ratio Geomean [1]: 2.0

CC(=O)O[C@@]12C[C@@H](C)[C@@]3(O)[C@@H](C=C(CO)C[C@]4(O)C(=O)C(C)=C[C@@H]34)[C@@H]1C2(C)C [Prostratin, prostratin, reference compound]
EC50 [3]: 2500 nM | GM-CSF in PBMC culture supernatant (PBMCs; 625 nM): 35 pg/mL | IFN-γ in PBMC culture supernatant (PBMCs; 625 nM): 255 pg/mL | IL-1b in PBMC culture supernatant (PBMCs; 625 nM): 57 pg/mL | IL-2 in PBMC culture supernatant (PBMCs; 625 nM): 22 pg/mL | IL-4 in PBMC culture supernatant (PBMCs; 625 nM): 0.7 pg/mL | IL-6 in PBMC culture supernatant (PBMCs; 625 nM): 40 pg/mL | IL-8 in PBMC culture supernatant (PBMCs; 625 nM): 40,698 pg/mL | IL-10 in PBMC culture supernatant (PBMCs; 625 nM): 4 pg/mL | IL-12p70 in PBMC culture supernatant (PBMCs; 625 nM): 10 pg/mL | TNF-α in PBMC culture supernatant (PBMCs; 625 nM): 634 pg/mL | GM-CSF in PBMC culture supernatant (PBMCs; 2500 nM): 68 pg/mL | IFN-γ in PBMC culture supernatant (PBMCs; 2500 nM): 292 pg/mL | IL-1b in PBMC culture supernatant (PBMCs; 2500 nM): 108 pg/mL | IL-2 in PBMC culture supernatant (PBMCs; 2500 nM): 32 pg/mL | IL-4 in PBMC culture supernatant (PBMCs; 2500 nM): 1.1 pg/mL | IL-6 in PBMC culture supernatant (PBMCs; 2500 nM): 78 pg/mL | IL-8 in PBMC culture supernatant (PBMCs; 2500 nM): 45,930 pg/mL | IL-10 in PBMC culture supernatant (PBMCs; 2500 nM): 4.6 pg/mL | IL-12p70 in PBMC culture supernatant (PBMCs; 2500 nM): 12 pg/mL | TNF-α in PBMC culture supernatant (PBMCs; 2500 nM): 1489 pg/mL | EC50 (CD69 on CD4+ T cells): 280 nM | platelet aggregation (platelet-rich plasma): stimulated platelet aggregation
